Data taken from ChEMBL document CHEMBL1255326, “erm(B)-carrying elements in tetracycline-resistant pneumococci and correspondence between Tn1545 and Tn6003” (2008).
Active and inactive are the calls of the source. The rule behind the calls is not given here.

Legend:
Streptococcus pneumoniae [1] = assay: Antibacterial activity against tetracycline resistant Streptococcus pneumoniae clinical isolate expressing erm(B) and tet(M) gene by agar dilution CLSI method; type: functional
Streptococcus pneumoniae [2] = assay: Antibacterial activity against aphA-3 positive tetracycline resistant Streptococcus pneumoniae clinical isolate expressing Tn6003 carrying erm(B)and tet(M) gene at 1000 ug by disk diffusion method; type: functional, organism-based
Streptococcus pneumoniae [3] = assay: Antibacterial activity against tnpR/tnpA positive tetracycline resistant Streptococcus pneumoniae clinical isolate expressing Tn3872 carrying erm(B) and tet(M) gene at 1000 ug by disk diffusion method; type: functional, organism-based
Streptococcus pneumoniae [4] = assay: Antibacterial activity against tetracycline resistant Streptococcus pneumoniae clinical isolate expressing Tn6002 carrying erm(B) and tet(M) gene at 1000 ug by disk diffusion method; type: functional, organism-based

Compound	MIC (Streptococcus pneumoniae [1]) [µg/mL]	Activity (Streptococcus pneumoniae [2])	Activity (Streptococcus pneumoniae [3])	Activity (Streptococcus pneumoniae [4])
CC[C@H]1OC(=O)[C@H](C)[C@@H](O[C@H]2C[C@@](C)(OC)[C@@H](O)[C@H](C)O2)[C@H](C)[C@@H](O[C@@H]2O[C@H](C)C[C@H](N(C)C)[C@H]2O)[C@](C)(O)C[C@@H](C)C(=O)[C@H](C)[C@@H](O)[C@]1(C)O [ERYTHROMYCIN]	> 128	–	–	–
NC[C@H]1O[C@H](O[C@H]2[C@H](O)[C@@H](O[C@H]3O[C@H](CO)[C@@H](O)[C@H](N)[C@H]3O)[C@H](N)C[C@@H]2N)[C@H](O)[C@@H](O)[C@@H]1O	–	inactive	Active	Active
CN(C)[C@@H]1C(O)=C(C(N)=O)C(=O)[C@@]2(O)C(O)=C3C(=O)c4c(O)cccc4[C@@](C)(O)[C@H]3C[C@@H]12 [TETRACYCLINE]	> 32	–	–	–
